Results reported in patent publication US20250249007A1, “PHARMACEUTICAL COMPOSITIONS OF ENSIFENTRINE FOR CHRONIC OBSTRUCTIVE PULMONARY DISEASE” (Verona Pharma PLC, priority 2024, published 2025).

What was measured:
[1] = test system: patients with moderate to severe COPD; test: Clinical study of nebulized ensifentrine versus placebo in COPD: average FEV1 AUC0-12h at week 12; format: in vivo, human
Protocol: A clinical study was conducted to determine the efficacy of ensifentrine in treating COPD compared with placebo. Ensifentrine was administered by nebulizer at a dose of 3 mg twice daily (BID) for 24 weeks. The study was a multicenter, randomized, double-blind, parallel group, placebo-controlled trial with around 800 patients and 5:3 randomization.
The study population included patients aged 40-80 years with moderate to severe COPD (FEV1 30%-70% p.n., FEV1/forced vital capacity (FVC) ratio<0.7, with mMRC≥2). The randomization stratified (a) the use of stable background maintenance LAMA or LABA therapy use (approx. 50% yes or no) and (b) cigarette smoking (current or former). Inhaled corticosteroid (ICS) maintenance therapy was permitted in up to 20% of patients under certain provisions.
The primary endpoint of the study was change from baseline in average FEV1 area under the curve (AUC0-12h) […] at week 12; morning trough FEV1 at week 12; and other endpoints including moderate/severe COPD exacerbations frequency over 24 weeks.
Baseline FEV1 is the mean of the two measurements taken before study medication on the day of first dosing, i.e., ≤40 minutes and just prior to dosing, both pre-dose on day 1. Average FEV1 AUC0-12h is defined as area under the curve over 12 h of the FEV1, divided by 12 h.
The investigational product and placebo were provided in 2.5 mL unit dose format in an ampule and administered via a nebulizer. The formulation of the investigational product (ensifentrine suspension formulation comprising crystalline polymorph Form I of ensifentrine) and placebo are shown in Table 2.

[2] = popPK model simulation of ensifentrine PK by renal function (virtual population of COPD subjects); design: species or system human; conditions: nebulization of 3 mg, simulated
Protocol: Plasma concentrations of ensifentrine for the assessment of pharmacokinetic (PK) parameters were measured using validated bioanalytical methods for ensifentrine in human plasma with LLOQ of 5 pg/mL. Samples were taken on the following schedule: • Week 6: 1.0 h (±0.5 h) and 2.5 h (±0.5 h) (even sites) or 1.5 h and 4 h (±1 h) (odd sites); • Week 12: pre-dose (−0.5 h), 4 to 6 h, and 8 to 12 h (even sites) or 0.5 h (±0.25 h), 3 h (±0.5 h), and 6 to 8 h (odd sites); • Week 24: pre-dose (−0.5 h) and 1.5 h (even sites) or pre-dose (−0.5 h) and 1 h (±0.5 h) (odd sites)
Based on the samples taken during the trial, PK data was modelled for COPD patients with varying levels of renal function:
A two-compartment model with first-order input and first-order elimination from the central compartment was fit to the plasma concentration-time data of ensifentrine using NONMEM® version 7.4.4. Different absorption functions and compartmental structures were explored. […]
The final model was evaluated using goodness of fit plots, bootstrap analysis, and visual predictive checks (VPCs). […]
Subjects with normal renal function to mild renal impairment are defined as those individuals with an absolute estimated glomerular filtration rate (aEGFR) of greater than or equal to 60 mL/min. […] Individual subject concentrations were simulated using NONMEM version 7.4.3, and PK parameters were calculated using R version 3.4.0. […]

[3] = Dose normalized steady-state AUCtau in non-COPD subjects with and without hepatic impairment; format: in vivo, human; conditions: for AUC: human, plasma, inhaled, 3 mg, dose normalized to 3 mg, FIG. 3
Protocol: The dose normalized steady-state AUCtau for a 3 mg dose in non-COPD subjects with and without hepatic impairment is shown in FIG. 3. As described in FIG. 3 the AUCtau,ss of healthy subjects was from about 5000 pg/mL*h to about 9000 pg/mL*h. The AUCtau,ss of subjects with moderate hepatic impairment was about 4000 pg/mL*h to about 11000 pg/mL*h. The AUCtau,ss of subjects with severe hepatic impairment was about 5500 pg/mL*h to about 6500 pg/mL*h. […] The highest dose normalized AUCtau,ss observed in this subset was for a subject with moderate hepatic impairment, but this was not the highest exposure in the overall dataset as it was exceeded by two other subjects with COPD.

AUC ratio aEGFR < 60 mL/min: ≥60 mL/min [2]: 1.30 | Cmax ratio aEGFR < 60 mL/min: ≥60 mL/min [2]: 1.16 | AUC ([3]; healthy subjects): 5 to 9 ng·h/mL | AUC ([3]; subjects with moderate hepatic impairment (n=10)): 4 to 11 ng·h/mL | AUC ([3]; subjects with severe hepatic impairment (n=2)): 5.5 to 6.5 ng·h/mL | Exposure (AUC) in hepatic impairment versus healthy subjects ([3]; moderate (n=10) or severe (n=2) hepatic impairment): comparable to healthy subjects
Structure (SMILES): COc1cc2c(cc1OC)-c1c/c(=N\c3c(C)cc(C)cc3C)n(CCNC(N)=O)c(=O)n1CC2 [Ensifentrine, N-(2-{(2E)-9,10-dimethoxy-4-oxo-2-[(2,4,6-trimethylphenyl)imino]-6,7-dihydro-2H-pyrimido[6,1-a]isoquinolin-3(4H)-yl}ethyl)urea]
Average FEV1 (AUC)0-12 h post-dose at Week 12: Change from Baseline, CFB Least Squares Mean (95% CI) ([1]; 3 mg BID by nebulizer, week 12, n = 498): 48.2 (30.0, 66.5) mL | Average FEV1 (AUC)0-12 h post-dose at Week 12: Placebo-corrected CFB LS Mean Diff. (95% CI) ([1]; 3 mg BID by nebulizer, week 12, versus placebo): 93.9 (64.5, 123.3) mL | Improvement in lung function ([1]; individuals with normal renal function to mild renal impairment and subjects with moderate renal impairment): statistically significant improvement in lung function
